ChEMBL document CHEMBL1671652, “Efficacy of piperacillin combined with the Penem beta-lactamase inhibitor BLI-489 in murine models of systemic infection” (2009)
In brackets after ≈: the same amount, converted by molar mass.

Columns and labels:
Enterobacter cloacae [1] = assay: Antimicrobial activity against AmpC beta-lactamase producing Enterobacter cloacae GC 4142 infected in CD-1 mouse treated 30 and 150 min postinfection in presence of 6:1 ratio of compound to beta-lactamase inhibitor BLI-489; type: functional
Enterobacter cloacae [2] = assay: Antimicrobial activity against AmpC beta-lactamase producing Enterobacter cloacae GC 4142 infected in CD-1 mouse treated 30 and 150 min postinfection in presence of 8:1 ratio of compound to beta-lactamase inhibitor BLI-489; type: functional
Enterobacter cloacae [3] = assay: Antimicrobial activity against AmpC beta-lactamase producing Enterobacter cloacae GC 4142 infected in CD-1 mouse treated 30 and 150 min postinfection in presence of 10:1 ratio of compound to beta-lactamase inhibitor BLI-489; type: functional
Enterobacter cloacae [4] = assay: Antimicrobial activity against AmpC beta-lactamase producing Enterobacter cloacae GC 4142 infected in CD-1 mouse treated 30 and 150 min postinfection in presence of 12:1 ratio of compound to beta-lactamase inhibitor BLI-489; type: functional
Enterobacter cloacae [5] = assay: Antimicrobial activity against AmpC beta-lactamase producing Enterobacter cloacae GC 4142 infected in CD-1 mouse treated 30 and 150 min postinfection in presence of 14:1 ratio of compound to beta-lactamase inhibitor BLI-489; type: functional
Escherichia coli [6] = assay: Antimicrobial activity against TEM-1 beta-lactamase producing Escherichia coli GC 6265 infected in CD-1 mouse treated 30 mins postinfection in presence of beta-lactamase inhibitor Tazobactam; type: functional; conditions: GC 6265, 0.5 h
Klebsiella pneumoniae [7] = assay: Antimicrobial activity against SHV-11 beta-lactamase producing Klebsiella pneumoniae GAR 7693 infected in CD-1 mouse treated 30 and 150 mins postinfection; type: functional
Klebsiella pneumoniae [8] = assay: Antimicrobial activity against SHV-11beta-lactamase producing Klebsiella pneumoniae GAR 7693 infected in CD-1 mouse treated 30 and 150 mins postinfection in presence of 8:1 ratio of compound to beta-lactamase inhibitor BLI-489; type: functional
Klebsiella pneumoniae [9] = assay: Antimicrobial activity against SHV-11beta-lactamase producing Klebsiella pneumoniae GAR 7693 infected in CD-1 mouse treated 30 and 150 mins postinfection in presence of beta-lactamase inhibitor Tazobactam; type: functional
Escherichia coli [10] = assay: Antimicrobial activity against TEM-10 beta-lactamase producing Escherichia coli GC 2022 infected in CD-1 mouse treated 30 mins postinfection; type: functional; conditions: GC 2022, 0.5 h
Escherichia coli [11] = assay: Antimicrobial activity against TEM-10 beta-lactamase producing Escherichia coli GC 2022 infected in CD-1 mouse treated 30 mins postinfection in presence of 8:1 ratio of compound to beta-lactamase inhibitor BLI-489; type: functional; conditions: GC 2022, 0.5 h
Escherichia coli [12] = assay: Antimicrobial activity against TEM-10 beta-lactamase producing Escherichia coli GC 2022 infected in CD-1 mouse treated 30 mins postinfection in presence of beta-lactamase inhibitor Tazobactam; type: functional; conditions: GC 2022, 0.5 h
Klebsiella pneumoniae [13] = assay: Antimicrobial activity against SHV-1and SHV-5 beta-lactamase producing Klebsiella pneumoniae GAR 7978 infected in CD-1 mouse treated 30 and 150 mins postinfection; type: functional
Klebsiella pneumoniae [14] = assay: Antimicrobial activity against SHV-1and SHV-5 beta-lactamase producing Klebsiella pneumoniae GAR 7978 infected in CD-1 mouse treated 30 and 150 mins postinfection in presence of 8:1 ratio of compound to beta-lactamase inhibitor BLI-489; type: functional
Klebsiella pneumoniae [15] = assay: Antimicrobial activity against SHV-1and SHV-5 beta-lactamase producing Klebsiella pneumoniae GAR 7978 infected in CD-1 mouse treated 30 and 150 mins postinfection in presence of beta-lactamase inhibitor Tazobactam; type: functional
Salmonella typhimurium [16] = assay: Antimicrobial activity against CTX-M-5 beta-lactamase producing Salmonella enterica serovar Typhimurium GC 4195 infected in CD-1 mouse treated 30 and 150 mins postinfection; type: functional, Salmonella enterica subsp. enterica serovar Typhimurium
Salmonella typhimurium [17] = assay: Antimicrobial activity against CTX-M-5 beta-lactamase producing Salmonella enterica serovar Typhimurium GC 4195 infected in CD-1 mouse treated 30 and 150 mins postinfection in presence of 8:1 ratio of compound to beta-lactamase inhibitor BLI-489; type: functional, Salmonella enterica subsp. enterica serovar Typhimurium
Salmonella typhimurium [18] = assay: Antimicrobial activity against CTX-M-5 beta-lactamase producing Salmonella enterica serovar Typhimurium GC 4195 infected in CD-1 mouse treated 30 and 150 mins postinfection in presence of beta-lactamase inhibitor Tazobactam; type: functional, Salmonella enterica subsp. enterica serovar Typhimurium
Enterobacter cloacae [19] = assay: Antimicrobial activity against AmpC beta-lactamase producing Enterobacter cloacae GC 4142 infected in CD-1 mouse treated 30 and 150 mins postinfection in presence of beta-lactamase inhibitor Tazobactam; type: functional
Pseudomonas aeruginosa [20] = assay: Antimicrobial activity against AmpC beta-lactamase producing Pseudomonas aeruginosa GC 1764 infected in CD-1 mouse treated 30 and 150 mins postinfection; type: functional
Pseudomonas aeruginosa [21] = assay: Antimicrobial activity against AmpC beta-lactamase producing Pseudomonas aeruginosa GC 1764 infected in CD-1 mouse treated 30 and 150 mins postinfection in presence of 8:1 ratio of compound to beta-lactamase inhibitor BLI-489; type: functional
Pseudomonas aeruginosa [22] = assay: Antimicrobial activity against AmpC beta-lactamase producing Pseudomonas aeruginosa GC 1764 infected in CD-1 mouse treated 30 and 150 mins postinfection in presence of beta-lactamase inhibitor Tazobactam; type: functional
Escherichia coli [23] = assay: Antimicrobial activity against ACT-1 beta-lactamase producing Escherichia coli GC 2814 infected in CD-1 mouse treated 30 and 150 mins postinfection; type: functional
Escherichia coli [24] = assay: Antimicrobial activity against ACT-1 beta-lactamase producing Escherichia coli GC 2814 infected in CD-1 mouse treated 30 and 150 mins postinfection in presence of 8:1 ratio of compound to beta-lactamase inhibitor BLI-489; type: functional
Escherichia coli [25] = assay: Antimicrobial activity against ACT-1 beta-lactamase producing Escherichia coli GC 2814 infected in CD-1 mouse treated 30 and 150 mins postinfection in presence of beta-lactamase inhibitor Tazobactam; type: functional
Escherichia coli [26] = assay: Antimicrobial activity against OXA-1 beta-lactamase producing Escherichia coli GAR 5946 infected in CD-1 mouse treated 30 and 150 mins postinfection; type: functional
Escherichia coli [27] = assay: Antimicrobial activity against OXA-1 beta-lactamase producing Escherichia coli GAR 5946 infected in CD-1 mouse treated 30 and 150 mins postinfection in presence of 8:1 ratio of compound to beta-lactamase inhibitor BLI-489; type: functional
Escherichia coli [28] = assay: Antimicrobial activity against OXA-1 beta-lactamase producing Escherichia coli GAR 5946 infected in CD-1 mouse treated 30 and 150 mins postinfection in presence of beta-lactamase inhibitor Tazobactam; type: functional
Staphylococcus aureus [29] = assay: Antimicrobial activity against penicillinase producing Staphylococcus aureus GC 6468 infected in CD-1 mouse treated 30 and 150 mins postinfection; type: functional
Staphylococcus aureus [30] = assay: Antimicrobial activity against penicillinase producing Staphylococcus aureus GC 6468 infected in CD-1 mouse treated 30 and 150 mins postinfection in presence of 8:1 ratio of compound to beta-lactamase inhibitor BLI-489; type: functional
Staphylococcus aureus [31] = assay: Antimicrobial activity against penicillinase producing Staphylococcus aureus GC 6468 infected in CD-1 mouse treated 30 and 150 mins postinfection in presence of beta-lactamase inhibitor Tazobactam; type: functional
Escherichia coli [32] = assay: Antimicrobial activity against TEM-1 beta-lactamase producing Escherichia coli GC 6265 by broth microdilution method; type: functional
Klebsiella pneumoniae [33] = assay: Antimicrobial activity against SHV-11 beta-lactamase producing Klebsiella pneumoniae GAR 7693 by broth microdilution method; type: functional
Escherichia coli [34] = assay: Antimicrobial activity against TEM-10 beta-lactamase producing Escherichia coli GC 2022 by broth microdilution method; type: functional
Klebsiella pneumoniae [35] = assay: Antimicrobial activity against SHV-1and SHV-5 beta-lactamase producing Klebsiella pneumoniae GAR 7978 by broth microdilution method; type: functional

What does the source list for `CCN1CCN(C(=O)N[C@@H](C(=O)N[C@@H]2C(=O)N3[C@@H]2SC(C)(C)[C@@H]3C(=O)O)c2ccccc2)C(=O)C1=O` [PIPERACILLIN]?
ED50 (Enterobacter cloacae [1]): 30 mg/kg; ED50 (Enterobacter cloacae [2]): 32 mg/kg; ED50 (Enterobacter cloacae [3]): 47 mg/kg; ED50 (Enterobacter cloacae [4]): 60 mg/kg; ED50 (Enterobacter cloacae [5]): 69 mg/kg; ED50 (Escherichia coli [6]): 11 mg/kg; ED50 (Klebsiella pneumoniae [7]): 193 mg/kg; ED50 (Klebsiella pneumoniae [8]): 23 mg/kg; ED50 (Klebsiella pneumoniae [9]): 24 mg/kg; ED50 (Escherichia coli [10]): 301 mg/kg; ED50 (Escherichia coli [11]): 40 mg/kg; ED50 (Escherichia coli [12]): 25 mg/kg; ED50 (Klebsiella pneumoniae [13]): 245 mg/kg; ED50 (Klebsiella pneumoniae [14]): 28 mg/kg; ED50 (Klebsiella pneumoniae [15]): 58 mg/kg; ED50 (Salmonella typhimurium [16]): 1120 mg/kg; ED50 (Salmonella typhimurium [17]): 45 mg/kg; ED50 (Salmonella typhimurium [18]): 152 mg/kg; ED50 (Enterobacter cloacae [19]): 71 mg/kg; ED50 (Pseudomonas aeruginosa [20]): 980 mg/kg; ED50 (Pseudomonas aeruginosa [21]): 103 mg/kg; ED50 (Pseudomonas aeruginosa [22]): 246 mg/kg; ED50 (Escherichia coli [23]): 103 mg/kg; ED50 (Escherichia coli [24]): 13 mg/kg; ED50 (Escherichia coli [25]): 45 mg/kg; ED50 (Escherichia coli [26]): 980 mg/kg; ED50 (Escherichia coli [27]): 86 mg/kg; ED50 (Escherichia coli [28]): 270 mg/kg; ED50 (Staphylococcus aureus [29]): 418 mg/kg; ED50 (Staphylococcus aureus [30]): 12 mg/kg; ED50 (Staphylococcus aureus [31]): 16 mg/kg; MIC (Escherichia coli [32]): > 64 mg/L; MIC (Klebsiella pneumoniae [33]): 2 mg/L (≈ 3.86 µM); MIC (Escherichia coli [34]): 1 mg/L (≈ 1.93 µM); MIC (Klebsiella pneumoniae [35]): > 64 mg/L
